ChEMBL document CHEMBL1145498, “A systematic interaction map of validated kinase inhibitors with Ser/Thr kinases” (Proc Natl Acad Sci U S A, 2007)
Blank lines part the entries; values can stand above or below the compound they belong to.

Assays:
[1] = Inhibition of Cdk5/p35
[2] = biological target: Tyrosine-protein kinase Lck (Homo sapiens, UniProt P06239)
[3] = biological target: Proto-oncogene tyrosine-protein kinase Src (Homo sapiens, UniProt P12931); assay: Inhibition of Src; conditions: read-out: IC50
[4] = Inhibition Cdk1/cyclin E
[5] = biological target: Cyclin-dependent kinase 1 (Homo sapiens, UniProt P06493); assay: Inhibition of Cdk1
[6] = biological target: Serine/threonine-protein kinase ATR (Homo sapiens, UniProt Q13535); assay: Inhibition of ATR
[7] = biological target: Serine-protein kinase ATM (Homo sapiens, UniProt Q13315); assay: Inhibition of ATM
[8] = biological target: T1, Protein kinase C epsilon type (Homo sapiens, UniProt Q02156); assay: Inhibition of PKCepsilon
T1 sequence (Q02156 whole entry): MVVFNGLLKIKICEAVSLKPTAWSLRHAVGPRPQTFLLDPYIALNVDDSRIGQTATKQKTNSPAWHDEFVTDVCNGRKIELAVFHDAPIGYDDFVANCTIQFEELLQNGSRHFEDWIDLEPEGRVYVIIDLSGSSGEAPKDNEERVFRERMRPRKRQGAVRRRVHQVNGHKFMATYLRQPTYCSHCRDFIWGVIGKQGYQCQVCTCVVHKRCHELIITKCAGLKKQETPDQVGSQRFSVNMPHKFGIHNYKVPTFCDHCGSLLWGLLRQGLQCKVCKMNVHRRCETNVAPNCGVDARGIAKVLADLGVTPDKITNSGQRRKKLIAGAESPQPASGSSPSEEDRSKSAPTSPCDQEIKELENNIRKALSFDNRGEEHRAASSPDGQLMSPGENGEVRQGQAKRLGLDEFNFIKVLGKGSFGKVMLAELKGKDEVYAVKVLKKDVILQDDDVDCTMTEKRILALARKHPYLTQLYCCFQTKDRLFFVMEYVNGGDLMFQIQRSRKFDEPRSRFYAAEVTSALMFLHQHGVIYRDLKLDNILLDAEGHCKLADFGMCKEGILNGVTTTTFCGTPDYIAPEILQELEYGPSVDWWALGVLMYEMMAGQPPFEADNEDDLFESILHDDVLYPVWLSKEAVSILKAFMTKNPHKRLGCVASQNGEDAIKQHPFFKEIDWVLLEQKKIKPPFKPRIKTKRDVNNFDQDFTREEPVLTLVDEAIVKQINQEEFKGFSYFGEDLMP

[9] = biological target: Epidermal growth factor receptor (Homo sapiens, UniProt P00533)
[10] = biological target: Protein kinase C alpha type (Homo sapiens, UniProt P17252); assay: Inhibition of PKCalpha
[11] = biological target: T2, Glycogen synthase kinase-3 beta (Homo sapiens, UniProt P49841); assay: Binding affinity to GSK3-beta
T2 sequence (P49841 whole entry): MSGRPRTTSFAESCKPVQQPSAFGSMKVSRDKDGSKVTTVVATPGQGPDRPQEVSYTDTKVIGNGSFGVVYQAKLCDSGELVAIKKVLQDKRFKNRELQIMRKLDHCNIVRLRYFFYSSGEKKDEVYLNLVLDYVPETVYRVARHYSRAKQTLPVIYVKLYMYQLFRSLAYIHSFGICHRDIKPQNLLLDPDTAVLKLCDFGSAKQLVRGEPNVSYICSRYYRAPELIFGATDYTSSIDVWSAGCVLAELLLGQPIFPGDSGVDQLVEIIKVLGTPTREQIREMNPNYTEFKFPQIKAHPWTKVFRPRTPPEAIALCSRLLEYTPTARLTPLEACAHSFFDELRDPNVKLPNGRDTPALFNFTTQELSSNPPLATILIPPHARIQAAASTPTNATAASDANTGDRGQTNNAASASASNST

[12] = biological target: T2, Glycogen synthase kinase-3 beta; assay: Inhibition of GSK3-beta; conditions: read-out: IC50
[13] = biological target: Protein kinase C beta type (Homo sapiens, UniProt P05771); assay: Inhibition of PKCbeta
[14] = biological target: Mitogen-activated protein kinase 10 (Homo sapiens, UniProt P53779)
Mitogen-activated protein kinase 10, sequence (P53779 whole entry): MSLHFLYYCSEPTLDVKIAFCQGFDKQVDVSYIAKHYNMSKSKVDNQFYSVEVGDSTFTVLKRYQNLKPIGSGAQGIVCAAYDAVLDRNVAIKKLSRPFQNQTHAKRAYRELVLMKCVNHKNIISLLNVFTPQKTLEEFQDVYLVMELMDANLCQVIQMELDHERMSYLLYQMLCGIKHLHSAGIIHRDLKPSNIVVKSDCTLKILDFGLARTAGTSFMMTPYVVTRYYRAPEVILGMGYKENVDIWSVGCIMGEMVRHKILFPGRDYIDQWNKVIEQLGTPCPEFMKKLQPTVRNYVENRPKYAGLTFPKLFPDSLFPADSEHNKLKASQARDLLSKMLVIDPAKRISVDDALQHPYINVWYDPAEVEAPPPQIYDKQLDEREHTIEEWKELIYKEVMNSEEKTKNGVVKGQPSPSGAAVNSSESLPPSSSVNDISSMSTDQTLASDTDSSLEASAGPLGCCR

[15] = biological target: Vascular endothelial growth factor receptor 2 (Homo sapiens, UniProt P35968); assay: Inhibition of KDR
[16] = Inhibition of serum-stimulated Akt kinase phosphorylation in human A375 cells; assay type: cell-based; conditions: A-375
A-375 = assay: Antiproliferative activity against human A375 cells; assay type: functional, cell-based
[17] = Inhibition of mouse CaM kinase 2
[18] = biological target: Inhibitor of nuclear factor kappa-B kinase subunit beta (Homo sapiens, UniProt O14920); assay: Inhibition of IKK-beta
[19] = biological target: Calcium/calmodulin-dependent protein kinase type IV (Homo sapiens, UniProt Q16566); assay: Inhibition of CaM-K4
[20] = Inhibition of CaM-K2
[21] = Inhibition of CaM-K1
[22] = biological target: T3, Myosin light chain kinase, smooth muscle (Homo sapiens, UniProt Q15746); assay: Binding affinity at MLCK
T3 sequence (Q15746 whole entry): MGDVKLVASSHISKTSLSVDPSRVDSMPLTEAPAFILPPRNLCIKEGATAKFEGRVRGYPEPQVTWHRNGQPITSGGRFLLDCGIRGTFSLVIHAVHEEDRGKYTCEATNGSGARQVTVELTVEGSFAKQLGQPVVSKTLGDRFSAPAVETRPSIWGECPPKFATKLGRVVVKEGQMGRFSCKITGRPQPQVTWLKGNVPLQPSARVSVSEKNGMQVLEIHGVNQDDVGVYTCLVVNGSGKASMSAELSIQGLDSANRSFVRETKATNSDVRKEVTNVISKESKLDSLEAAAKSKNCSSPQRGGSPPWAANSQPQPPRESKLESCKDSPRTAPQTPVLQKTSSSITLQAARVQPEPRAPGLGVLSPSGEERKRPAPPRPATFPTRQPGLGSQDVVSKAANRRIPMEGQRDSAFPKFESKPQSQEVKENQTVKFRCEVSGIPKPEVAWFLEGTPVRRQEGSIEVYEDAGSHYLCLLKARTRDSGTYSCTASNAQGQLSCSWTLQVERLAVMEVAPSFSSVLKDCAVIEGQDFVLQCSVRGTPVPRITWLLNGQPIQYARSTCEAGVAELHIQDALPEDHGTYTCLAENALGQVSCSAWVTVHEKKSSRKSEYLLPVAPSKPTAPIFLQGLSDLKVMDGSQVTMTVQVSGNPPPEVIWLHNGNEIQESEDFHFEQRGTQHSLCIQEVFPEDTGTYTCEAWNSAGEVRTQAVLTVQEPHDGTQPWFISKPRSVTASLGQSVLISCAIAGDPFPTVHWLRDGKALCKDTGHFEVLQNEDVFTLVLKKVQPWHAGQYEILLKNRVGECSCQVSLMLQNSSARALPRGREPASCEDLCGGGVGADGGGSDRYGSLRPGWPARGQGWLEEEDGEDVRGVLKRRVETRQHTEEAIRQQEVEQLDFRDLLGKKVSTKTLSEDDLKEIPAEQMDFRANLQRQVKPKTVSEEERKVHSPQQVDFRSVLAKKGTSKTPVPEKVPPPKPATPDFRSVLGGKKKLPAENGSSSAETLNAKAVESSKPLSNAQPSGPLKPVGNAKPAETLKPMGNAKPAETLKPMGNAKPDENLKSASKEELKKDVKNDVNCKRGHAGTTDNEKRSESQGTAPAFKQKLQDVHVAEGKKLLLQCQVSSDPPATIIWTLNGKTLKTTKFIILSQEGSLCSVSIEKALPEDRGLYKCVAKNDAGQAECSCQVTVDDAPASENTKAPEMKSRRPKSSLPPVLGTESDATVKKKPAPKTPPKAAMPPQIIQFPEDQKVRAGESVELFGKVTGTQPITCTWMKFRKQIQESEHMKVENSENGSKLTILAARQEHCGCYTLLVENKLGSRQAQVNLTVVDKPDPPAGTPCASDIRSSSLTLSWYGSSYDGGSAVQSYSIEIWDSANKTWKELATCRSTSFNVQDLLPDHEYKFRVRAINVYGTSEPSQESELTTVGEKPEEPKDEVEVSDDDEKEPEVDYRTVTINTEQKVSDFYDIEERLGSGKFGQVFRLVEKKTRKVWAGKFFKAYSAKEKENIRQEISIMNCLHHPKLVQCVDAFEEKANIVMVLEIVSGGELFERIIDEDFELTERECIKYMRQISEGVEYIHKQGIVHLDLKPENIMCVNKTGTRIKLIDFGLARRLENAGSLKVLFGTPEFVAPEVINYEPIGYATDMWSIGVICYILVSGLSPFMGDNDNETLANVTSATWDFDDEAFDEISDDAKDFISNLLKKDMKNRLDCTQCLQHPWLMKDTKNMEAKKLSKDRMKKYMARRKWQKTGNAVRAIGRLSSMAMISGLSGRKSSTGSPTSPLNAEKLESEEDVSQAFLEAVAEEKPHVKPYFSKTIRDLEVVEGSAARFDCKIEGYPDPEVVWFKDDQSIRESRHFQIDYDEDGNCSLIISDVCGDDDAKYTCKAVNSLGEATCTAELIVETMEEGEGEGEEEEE

[23] = biological target: Mitogen-activated protein kinase 1 (Homo sapiens, UniProt P28482); assay: Inhibition of ERK2
Mitogen-activated protein kinase 1, sequence (P28482 whole entry): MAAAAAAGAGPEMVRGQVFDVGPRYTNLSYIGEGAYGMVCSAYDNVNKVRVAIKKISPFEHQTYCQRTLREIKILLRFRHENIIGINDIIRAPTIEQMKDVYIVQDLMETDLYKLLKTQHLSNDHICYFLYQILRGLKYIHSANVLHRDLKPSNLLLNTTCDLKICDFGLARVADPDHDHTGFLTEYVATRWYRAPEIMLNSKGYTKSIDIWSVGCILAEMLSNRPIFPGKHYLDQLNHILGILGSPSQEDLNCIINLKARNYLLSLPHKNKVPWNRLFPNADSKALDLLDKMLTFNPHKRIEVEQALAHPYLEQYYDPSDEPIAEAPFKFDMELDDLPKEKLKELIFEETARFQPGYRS

[24] = Inhibition of Cdk1/cyclin A
[25] = biological target: RAC-alpha serine/threonine-protein kinase (Homo sapiens, UniProt P31749); assay: Inhibition of AKT
[26] = Inhibition of Cdk4/cyclin D
[27] = Inhibition of SGK
[28] = biological target: Tyrosine-protein kinase Fyn (Homo sapiens, UniProt P06241); assay: Inhibition of Fyn
Ephrin type-B receptor 3 = Ephrin type-B receptor 3 (Homo sapiens, UniProt P54753); assay: Inhibition of EphB3
Ephrin type-B receptor 3, sequence (P54753 whole entry): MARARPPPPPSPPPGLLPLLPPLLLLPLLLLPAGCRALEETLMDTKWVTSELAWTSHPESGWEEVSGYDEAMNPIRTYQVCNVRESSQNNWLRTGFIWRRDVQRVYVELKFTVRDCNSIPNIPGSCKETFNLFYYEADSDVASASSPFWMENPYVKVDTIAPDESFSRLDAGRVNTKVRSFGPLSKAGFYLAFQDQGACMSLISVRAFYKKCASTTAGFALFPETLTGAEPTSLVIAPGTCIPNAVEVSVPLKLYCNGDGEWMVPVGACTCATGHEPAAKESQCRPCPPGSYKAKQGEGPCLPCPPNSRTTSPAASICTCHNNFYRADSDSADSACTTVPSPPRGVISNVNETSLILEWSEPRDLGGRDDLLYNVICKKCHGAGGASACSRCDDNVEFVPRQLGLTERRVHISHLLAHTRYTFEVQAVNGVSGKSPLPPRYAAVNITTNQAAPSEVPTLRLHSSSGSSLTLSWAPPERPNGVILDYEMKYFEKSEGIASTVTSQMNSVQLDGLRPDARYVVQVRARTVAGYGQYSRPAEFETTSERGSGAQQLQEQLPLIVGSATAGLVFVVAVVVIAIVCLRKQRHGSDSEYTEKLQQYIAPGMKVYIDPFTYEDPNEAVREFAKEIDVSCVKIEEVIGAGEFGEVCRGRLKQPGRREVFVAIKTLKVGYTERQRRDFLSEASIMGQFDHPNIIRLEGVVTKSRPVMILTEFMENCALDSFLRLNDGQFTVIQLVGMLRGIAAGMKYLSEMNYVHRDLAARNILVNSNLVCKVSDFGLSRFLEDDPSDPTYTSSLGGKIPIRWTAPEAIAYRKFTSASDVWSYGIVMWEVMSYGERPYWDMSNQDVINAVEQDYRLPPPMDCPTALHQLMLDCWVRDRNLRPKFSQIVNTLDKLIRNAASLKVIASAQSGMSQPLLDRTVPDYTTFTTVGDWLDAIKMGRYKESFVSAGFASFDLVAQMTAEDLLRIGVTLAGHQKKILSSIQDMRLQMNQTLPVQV

[29] = biological target: Protein kinase C delta type (Homo sapiens, UniProt Q05655); assay: Inhibition of PKCdelta
[30] = biological target: T3, Myosin light chain kinase, smooth muscle; assay: Inhibition of myosin light chain kinase
[31] = biological target: Dual specificity mitogen-activated protein kinase kinase 1 (Homo sapiens, UniProt Q02750)

IC50 [1]: 75 nM
SMILES: CC(C)[C@H](CO)Nc1nc(Nc2cccc(Cl)c2)c2ncn(C(C)C)c2n1 [PURVALANOLA]

SMILES: COc1c(C=O)c(O)cc2c1C(=O)c1ccccc1C2=O [DAMNACANTHAL]
IC50 [2]: 620 nM

IC50 [3]: 430 nM | IC50 [4]: 210 nM
SMILES: O=C1Nc2ccccc2/C1=C1/Nc2ccccc2/C1=N\OCC(O)CO (configuration not stated)

IC50 [5]: 5 nM
SMILES: O=Nc1c(-c2c(O)[nH]c3ccc(I)cc23)[nH]c2ccccc12

SMILES: NC(N)=S [THIOUREA]
IC50 [6]: 200 nM | IC50 [7]: 200 nM

IC50 [8]: 175 nM
SMILES: COCc1cc(O)c(O)c(O)c1-c1c(COC)cc(O)c(O)c1O

IC50 [7]: 17600 nM
SMILES: CCN(CC)CCCCNc1ncc2cc(-c3cc(OC)cc(OC)c3)c(NC(=O)NC(C)(C)C)nc2n1 [PD-173074]

IC50 [9]: > 10000 nM | IC50 [10]: 6100 nM
SMILES: CCn1cnc2c(N)nc(N(c3cccc(Cl)c3)[C@@H]3CCCC[C@@H]3N)nc21 (relative stereo)

Kd [11]: 126 nM | IC50 [12]: 30 nM
SMILES: CC(C)n1cnc2c(Nc3cccc(Cl)c3)nc(NCCO)nc21

IC50 [13]: 2 nM | IC50 [10]: 2 nM
SMILES: Cn1c2ccccc2c2c3c(c4c5ccccc5n(CCC#N)c4c21)CNC3=O [GO-6976]

SMILES: Oc1c2ccccc2c2c3c(cccc13)N=N2 [SP-600125]
IC50 [14]: 90 nM

SMILES: Oc1cccc(-c2nc(N3CCOCC3)c3sccc3n2)c1
IC50 [15]: ≥ 3400 nM | IC50 [16]: < 3000 nM | IC50 (A-375): 580 nM | IC50 [10]: ≥ 3400 nM | IC50 [17]: 370 nM

IC50 [18]: 13 nM
SMILES: NC(=O)Nc1sc(-c2ccccc2)cc1C(N)=O

IC50 [19]: > 26700 nM | IC50 [20]: 10 µg/mL | IC50 [21]: > 10 µg/mL | IC50 [22]: 26700 nM | IC50 [23]: > 26700 nM
SMILES: CC(=O)O.O=C(O)c1ccc2c3c1cccc3c(=O)n1c3ccccc3nc21

Ki [24]: 110 nM | Ki [25]: > 2000 nM | Ki [26]: > 2000 nM | Ki [27]: 497 nM | Ki [28]: > 2000 nM | Ki [10]: > 2000 nM | Ki (Ephrin type-B receptor 3): > 2000 nM | Ki [29]: 318 nM
SMILES: O=C1N=C(NCc2cccs2)S/C1=C/c1ccc2ncccc2c1

IC50 [30]: 3600 nM
SMILES: O=S(=O)(c1cccc2cnccc12)N1CCCNCC1 [FASUDIL]

SMILES: O=C1C=CC(=O)c2ccccc21 [NAPHTHOQUINONE]
IC50 [31]: 380 nM
